Results from patent publication US7951956B2, “Benzoimidazole compound capable of inhibiting prostaglandin D synthetase” (Taiho Pharmaceuticals Co., Ltd., priority 2005, dated 2011).

molecular target: human hematopoietic synthase (Homo sapiens, UniProt O60760); experiment: Hematopoietic synthase inhibitory activity (Experiment 1); format: biochemical; conditions: [14C] prostaglandin H2 10 μM, preincubated at 25° C. for 5 minutes, 1 minute reaction; read-out: Concentration of Pharmaceutical Compound Required to Inhibit 50% of Hematopoietic Synthase
Sequence (O60760 whole entry): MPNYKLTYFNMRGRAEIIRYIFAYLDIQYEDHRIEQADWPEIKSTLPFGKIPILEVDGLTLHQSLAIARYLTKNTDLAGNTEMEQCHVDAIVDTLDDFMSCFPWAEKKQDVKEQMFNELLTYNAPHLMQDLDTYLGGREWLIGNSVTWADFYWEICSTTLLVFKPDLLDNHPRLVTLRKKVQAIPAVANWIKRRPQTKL
Description: Experiment 1 was carried out according to the method of Urade, Y. et al. (J. Biol. Chem. 262, 3820-3825, (1987)). More specifically, the reaction mixture (49 μL); 100 mM Tris-HCl (pH 8.0), 1 mM reduced glutathione, 0.1 mg/mL γ-globulin, and human hematopoietic synthase (quantum sufficient), and a test compound (final concentration: 0.01-100 μM) were preincubated at 25° C. for 5 minutes. In place of the test compound, a DMSO solution (final concentration: 1%) was used in the solvent control group (Control Group). Subsequently, 1 μL of [^14C] prostaglandin H2 (final concentration: 10 μM) was added to start the reaction. One minute after the start of the reaction, 250 μL of a reaction stopper solution (diethylether/methanol/1M citric acid (30/4/1) cooled to −20° C. was added to stop the reaction.
Thereafter, 50 μL of the upper layer portion (organic solvent phase) was applied to a TLC plate and developed at −20° C. for 45 minutes (developer: diethylether/methanol/acetic acid (capacity ratio=90/2/1)). After drying the plate, the plate was exposed to an imaging plate for 1 to 24 hours, and the radioactivity corresponding to prostaglandin D2 was analyzed using an image analyzer (product of FUJIFILM Corporation). The area (%) occupied by the prostaglandin D2 band per lane was calculated, and the concentration of the test compound required to inhibit 50% of the hematopoietic synthase (IC50 value) was calculated by comparison with the Control group in each experiment.

IC50 [nM] | SMILES
223 | Cc1[nH]c(C(=O)NCCN2CCCC2)c(C)c1-c1nc2cc(C(=O)c3ccccc3)ccc2[nH]1 [Compound 23, N-(2-Pyrrolidine-1-yl-ethyl)-4-(5-benzoylbenzimidazol-2-yl)-3,5-dimethylpyrrole-2-carboxamide]
496 | Cc1[nH]c(C(=O)NCCN2CCCCC2)c(C)c1-c1nc2cc(C(=O)c3ccccc3)ccc2[nH]1 [Compound 24, N-(2-Piperidine-1-yl-ethyl)-4-(5-benzoylbenzimidazol-2-yl)-3,5-dimethylpyrrole-2-carboxamide]
286 | Cc1[nH]c(C(=O)NCC2CCCCC2)c(C)c1-c1nc2cc(C(=O)c3ccccc3)ccc2[nH]1 [Compound 25, N-(Cyclohexylmethyl)-4-(5-benzoylbenzimidazol-2-yl)-3,5-dimethylpyrrole-2-carboxamide]
149 | Cc1cc(NC(=O)c2[nH]c(C)c(-c3nc4cc(C(=O)c5ccccc5)ccc4[nH]3)c2C)no1 [Compound 26, N-(5-Methylisoxazole-3-yl)-4-(5-benzoylbenzimidazol-2-yl)-3,5-dimethylpyrrole-2-carboxamide]
309 | Cc1[nH]c(C(=O)Nc2ccc(C#N)cc2)c(C)c1-c1nc2cc(C(=O)c3ccccc3)ccc2[nH]1 [Compound 27, N-(4-Cyanophenyl)-4-(5-benzoylbenzimidazol-2-yl)-3,5-dimethylpyrrole-2-carboxamide]
73 | Cc1[nH]c(C(=O)Nc2ccc3[nH]ccc3c2)c(C)c1-c1nc2cc(C(=O)c3ccccc3)ccc2[nH]1 [Compound 28, N-(Indole-5-yl)-4-(5-benzoylbenzimidazol-2-yl)-3,5-dimethylpyrrole-2-carboxamide]
53 | Cc1[nH]c(C(=O)Nc2ccc3c(c2)OCO3)c(C)c1-c1nc2cc(C(=O)c3ccccc3)ccc2[nH]1 [Compound 29, N-(3,4-Methylenedioxyphenyl-1-yl)-4-(5-benzoylbenzimidazol-2-yl)-3,5-dimethylpyrrole-2-carboxamide]
113 | Cc1[nH]c(C(=O)Nc2ccc3c(c2)CCO3)c(C)c1-c1nc2cc(C(=O)c3ccccc3)ccc2[nH]1 [Compound 30, N-(2,3-Dihydrobenzofuran-5-yl)-4-(5-benzoylbenzimidazol-2-yl)-3,5-dimethylpyrrole-2-carboxamide]
90 | Cc1[nH]c(C(=O)Nc2ccc3ncsc3c2)c(C)c1-c1nc2cc(C(=O)c3ccccc3)ccc2[nH]1 [Compound 31, N-(Benzothiazole-6-yl)-4-(5-benzoylbenzimidazol-2-yl)-3,5-dimethylpyrrole-2-carboxamide]
124 | Cc1[nH]c(C(=O)Nc2ccc3c(c2)OCCO3)c(C)c1-c1nc2cc(C(=O)c3ccccc3)ccc2[nH]1 [Compound 32, N-(3,4-Ethylenedioxyphenyl)-4-(5-benzoylbenzimidazol-2-yl)-3,5-dimethylpyrrole-2-carboxamide]
72 | Cc1[nH]c(C(=O)NCCc2ccccn2)c(C)c1-c1nc2cc(C(=O)c3ccccc3)ccc2[nH]1 [Compound 34, N-(2-(2-Pyridyl)ethyl)-4-(5-benzoylbenzimidazol-2-yl)-3,5-dimethylpyrrole-2-carboxamide]
746 | Cc1[nH]c(C(=O)NCc2ccc(Cl)c(Cl)c2)c(C)c1-c1nc2cc(C(=O)c3ccccc3)ccc2[nH]1 [Compound 35, N-(3,4-Dichlorobenzyl)-4-(5-benzoylbenzimidazol-2-yl)-3,5-dimethylpyrrole-2-carboxamide]
195 | COc1ccc(CNC(=O)c2[nH]c(C)c(-c3nc4cc(C(=O)c5ccccc5)ccc4[nH]3)c2C)cc1OC [Compound 36, N-(3,4-Dimethoxybenzyl)-4-(5-benzoylbenzimidazol-2-yl)-3,5-dimethylpyrrole-2-carboxamide]
213 | Cc1[nH]c(C(=O)NCc2ccc3c(c2)OCO3)c(C)c1-c1nc2cc(C(=O)c3ccccc3)ccc2[nH]1 [Compound 37, N-(3,4-Methylenedioxyphenylmethyl)-4-(5-benzoylbenzimidazol-2-yl)-3,5-dimethylpyrrole-2-carboxamide]
136 | Cc1[nH]c(C(=O)NCC2=NNC(=O)CC2)c(C)c1-c1nc2cc(C(=O)c3ccccc3)ccc2[nH]1 [Compound 38, N-(2,3,4,5-Tetrahydro-3-oxo-pyridazine-6-yl-methyl)-4-(5-benzoylbenzimidazol-2-yl)-3,5-dimethylpyrrole-2-carboxamide]
351 | Cc1[nH]c(C(=O)N2CCCC2)c(C)c1-c1nc2cc(C(=O)c3ccccc3)ccc2[nH]1 [Compound 39, ((4-(5-Benzoylbenzimidazol-2-yl)-3,5-dimethylpyrrol-2-yl)-carbonyl)pyrrolidine]
1450 | Cc1[nH]c(C(=O)N2CCN(c3ccccc3)CC2)c(C)c1-c1nc2cc(C(=O)c3ccccc3)ccc2[nH]1 [Compound 41, ((4-(5-Benzoylbenzimidazol-2-yl)-3,5-dimethylpyrrol-2-yl)-carbonyl)-4-phenylpiperazine]
791 | Cc1[nH]c(C(=O)N2CCC(O)CC2)c(C)c1-c1nc2cc(C(=O)c3ccccc3)ccc2[nH]1 [Compound 43, ((4-(5-Benzoylbenzimidazol-2-yl)-3,5-dimethylpyrrol-2-yl)-carbonyl)-4-hydroxypiperidine]
1670 | CCOC(=O)C1CCN(C(=O)c2[nH]c(C)c(-c3nc4cc(C(=O)c5ccccc5)ccc4[nH]3)c2C)CC1 [Compound 44, ((4-(5-Benzoylbenzimidazol-2-yl)-3,5-dimethylpyrrol-2-yl)-carbonyl)-4-ethoxycarbonylpiperidine]
269 | Cc1[nH]c(C(=O)N2CCC(C(=O)N(C)CCN(C)C)CC2)c(C)c1-c1nc2cc(C(=O)c3ccccc3)ccc2[nH]1 [Compound 47, N-Methyl-N-(2-dimethylaminoethyl)-1-((4-(5-benzoylbenzimidazol-2-yl)-3,5-dimethylpyrrol-2-yl)-carbonyl)piperidine-4-carboxamide]
124 | Cc1[nH]c(C(=O)N2CCC(C(=O)NCCCN(C)C)CC2)c(C)c1-c1nc2cc(C(=O)c3ccccc3)ccc2[nH]1 [Compound 48, N-(3-Dimethylaminopropyl)-1-((4-(5-benzoylbenzimidazol-2-yl)-3,5-dimethylpyrrol-2-yl)-carbonyl)piperidine-4-carboxamide]
649 | COCCCNC(=O)C1CCN(C(=O)c2[nH]c(C)c(-c3nc4cc(C(=O)c5ccccc5)ccc4[nH]3)c2C)CC1 [Compound 49, N-(3-Methoxypropyl)-1-((4-(5-benzoylbenzimidazol-2-yl)-3,5-dimethylpyrrol-2-yl)-carbonyl)piperidine-4-carboxamide]
843 | Cc1[nH]c(C(=O)N2CCC(C(=O)NCC3CCCCC3)CC2)c(C)c1-c1nc2cc(C(=O)c3ccccc3)ccc2[nH]1 [Compound 50, N-Cyclohexylmethyl-1-((4-(5-benzoylbenzimidazol-2-yl)-3,5-dimethylpyrrol-2-yl)-carbonyl)piperidine-4-carboxamide]
4780 | CN(C)Cc1ccc(-c2nc3cc(C(=O)c4ccccc4)ccc3[nH]2)o1 [Compound 56, 2-(5-Dimethylaminomethyl-furan-2-yl)-5-benzoylbenzimidazole]
2370 | O=C(c1ccccc1)c1ccc2[nH]c(-c3ccc(Br)o3)nc2c1 [Compound 58, 2-(5-Bromo-furan-2-yl)-5-benzoylbenzimidazole]
3560 | O=C(c1ccccc1)c1ccc2[nH]c(-c3ccc(C(=O)N4CCCC4)o3)nc2c1 [Compound 59]
